Assay [1] concerns platelet poor citrated plasma. Put plainly: Prothrombin time (PT) test. In kind it is biochemical, human. The conditions noted are these: drug sample 3000 mg/L; for PT Average ± SD: average of three volunteers; for PT: equal volume with plasma, 5 min at 37°C. The protocol: (§1) PT and aPTT tests were carried out simultaneously. Blood samples from three healthy volunteers were collected in sodium citrated blood tubes (Vacutainer, BD). Blood samples were then centrifuged for 15 min at 1500 rpm to prepare platelet poor citrated plasma. The LABiTec (Germany) apparatus was used for the determination of PT and aPTT. Equal volumes of drug samples (3000 mg/L) and platelet-depleted plasma were incubated for 5 min at 37°C. The PT test was performed as follows: a 100 μl of tissue thromboplastin (HUMAN) was added to 50 μl of prewarmed mixture, and clotting time was measured. For the aPTT test, 50 μl of rabbit brain extract was added to equal volume of the prewarmed platelet poor plasma-extract mixture incubated for 1 minute after which 50 μl of 0.025 M calcium chloride (HUMAN) was added and clotting time was measured; PBS was used as control.

Assay [2] deals with T1, COX2 (Homo sapiens, UniProt P35354).
T1 construct: purchased Cayman Chemical, USA 560131
T1 sequence (P35354 18-604): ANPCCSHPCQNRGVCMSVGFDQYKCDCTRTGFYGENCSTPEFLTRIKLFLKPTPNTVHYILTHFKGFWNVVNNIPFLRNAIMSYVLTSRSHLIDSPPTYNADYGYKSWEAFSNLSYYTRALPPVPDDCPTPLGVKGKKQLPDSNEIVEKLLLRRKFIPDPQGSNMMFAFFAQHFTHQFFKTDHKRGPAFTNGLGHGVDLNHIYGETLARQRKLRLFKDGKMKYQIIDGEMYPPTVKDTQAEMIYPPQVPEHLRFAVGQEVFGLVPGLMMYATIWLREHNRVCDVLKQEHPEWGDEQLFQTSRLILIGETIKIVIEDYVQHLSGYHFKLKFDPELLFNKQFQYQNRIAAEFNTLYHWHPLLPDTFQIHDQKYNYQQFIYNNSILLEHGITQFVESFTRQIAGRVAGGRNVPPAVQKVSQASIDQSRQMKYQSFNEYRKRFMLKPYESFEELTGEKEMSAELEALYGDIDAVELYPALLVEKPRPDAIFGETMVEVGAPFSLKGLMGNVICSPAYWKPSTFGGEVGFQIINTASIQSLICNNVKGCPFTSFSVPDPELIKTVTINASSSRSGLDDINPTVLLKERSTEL
As to the kind of experiment: biochemical. The protocol: IR (infrared) spectra were done using FTIR (Thermo Fisher Nicolet IS5). […] Nuclear magnetic resonance (NMR) spectra were obtained using the Bruker Avance (300 MHz) spectrometer, micropipettes (Finnpipette, Finland), incubator (Nuve, Turkey), syringe filter 0.45 μm pore size (Microlab, China), microbroth plate (Greiner bio-one, North America), and LABiTec (Germany) for PT and aPTT tests.
The plate is washed with a buffer solution, and Ellman's reagent, which contains the substrate of acetylcholinesterase, is added to the well. […] The anti-inflammatory effect of the tested compounds was evaluated by calculating the percentage inhibition of PGE2 production.

For assay [3], the target named is T2, COX1 (Ovis aries, UniProt P05979).
T2 sequence (P05979 25-600): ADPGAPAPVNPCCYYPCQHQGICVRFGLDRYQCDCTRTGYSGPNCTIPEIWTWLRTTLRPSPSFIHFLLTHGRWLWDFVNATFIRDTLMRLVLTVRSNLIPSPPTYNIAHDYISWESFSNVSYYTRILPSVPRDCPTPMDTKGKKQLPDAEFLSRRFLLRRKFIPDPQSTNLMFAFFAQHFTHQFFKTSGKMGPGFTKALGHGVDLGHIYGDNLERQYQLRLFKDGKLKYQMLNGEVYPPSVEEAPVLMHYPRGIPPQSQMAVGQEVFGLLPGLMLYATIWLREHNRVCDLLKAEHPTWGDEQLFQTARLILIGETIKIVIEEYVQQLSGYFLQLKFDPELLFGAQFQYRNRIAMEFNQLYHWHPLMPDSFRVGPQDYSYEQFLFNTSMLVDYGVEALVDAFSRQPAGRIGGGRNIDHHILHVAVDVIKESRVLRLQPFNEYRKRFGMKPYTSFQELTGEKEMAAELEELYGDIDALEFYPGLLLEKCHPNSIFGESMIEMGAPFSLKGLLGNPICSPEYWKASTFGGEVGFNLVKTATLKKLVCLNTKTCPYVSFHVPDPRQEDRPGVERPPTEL
As to the kind of experiment: COX inhibitor screening assay kit (Cayman No. 560131), COX1. In kind it is biochemical. Also noted: purchased Cayman Chemical, USA 560131. The settings on record: for IC50: ELISA kit, calculated from percentage inhibition of PGE2 production, read-out: IC50 for COX1 enzyme (converted). How it is done: The instrumentation used in this project includes magnetic stirrer and heater (LM-1003), weighing balance (Adventurer-OHAVS-AR2140), and rotaevaporator (Heidolph-OB2000). IR (infrared) spectra were done using FTIR (Thermo Fisher Nicolet IS5). The UV-VIS spectra were done using the JENWAY-7315 spectrophotometer. Nuclear magnetic resonance (NMR) spectra were obtained using the Bruker Avance (300 MHz) spectrometer, micropipettes (Finnpipette, Finland), incubator (Nuve, Turkey), syringe filter 0.45 μm pore size (Microlab, China), microbroth plate (Greiner bio-one, North America), and LABiTec (Germany) for PT and aPTT tests. The Cyclooxygenase (COX) enzyme inhibition test was performed using COX inhibitor screening assay kit No. 560131 Cayman Chemical, USA and was read by Elisaplate Reader (BioRad, Japan).
COX1 and COX2 inhibition activities were determined using a COX inhibitor screening assay kit No. 560131 by Cayman Chemical, USA. The plate is washed with a buffer solution, and Ellman's reagent, which contains the substrate of acetylcholinesterase, is added to the well. The yellow product of this enzymatic reaction is determined spectrophotometrically in a microplate reader (BioRad, Japan) at 415 nm. […]. The anti-inflammatory effect of the tested compounds was evaluated by calculating the percentage inhibition of PGE2 production.

In assay [4] the test system is platelet poor citrated plasma. As to the kind of experiment: Activated partial thromboplastin time (aPTT) test. The format is biochemical, human. The conditions noted are these: drug sample 3000 mg/L; for aPTT Average ± SD: average of three volunteers; for aPTT: equal volume with plasma, 5 min at 37°C. How it is done:
as §1

Assay [5] addresses T1, COX2. The conditions noted are these: previous published literature; read-out: inhibition activity for COX2 enzyme (converted); cited from earlier work.
Assay [6] has as its target T2, COX1. The settings on record: previous published literature; cited from earlier work.

Where two headings read alike, the source gives them in different places.

With `CC(=O)Nc1ccc(OC(=O)C(C)c2ccc(CC(C)C)cc2)cc1` (stereo not drawn) [Ibu-Para ester, 4-Acetamidophenyl 2-(4-isobutylphenyl) propanoate], the “PT Average ± SD” value in assay [1] stood at 23.8 ± 6.08 s. The PT in assay [1] (volunteer 1) worked out at 19.8 s; in assay [1] (volunteer 2), 20.8 s; in assay [1] (volunteer 3), 30.8 s. Also, the IC50 in assay [2] (ELISA kit, calculated from percentage inhibition of PGE2 production, read-out: IC50 for COX2 enzyme (converted)) is 6.5 µM; in assay [3], 1.56 µM. Besides, the “selectivity COX1 versus COX2” value in assay [3] (comparison of the COX1 and COX2 IC50) is listed as “more selective towards COX1”. Also, in assay [4], the “aPTT Average ± SD” value was 71 ± 0.9 s. The aPTT was 71.2 s in assay [4] (volunteer 1), 71.8 s in assay [4] (volunteer 2) and 70 s in assay [4] (volunteer 3).

For the compound `CC(C)Cc1ccc(C(C)C(=O)O)cc1` (stereo not drawn) [Ibuprofen, reference compound], the “PT Average ± SD” value in assay [1] amounted to 21.3 ± 3.3 s.

Regarding `COc1ccc2cc([C@H](C)C(=O)Oc3ccc(NC(C)=O)cc3)ccc2c1` [Nap-Para ester], the “PT Average ± SD” value in assay [1] amounted to 21.8 ± 2.86 s. Besides, the PT in assay [1] (volunteer 1) was 20.4 s; in assay [1] (volunteer 2), 19.9 s; in assay [1] (volunteer 3) it was 25.1 s. The IC50 in assay [2] was 5.23 µM; in assay [3] it was 4.13 µM. Besides, the “aPTT Average ± SD” value in assay [4] turned out to be 69.9 ± 8.79 s; in assay [4] (listed as naproxen-paracetamol ester), 69.9 ± 7.7 s. In addition, the aPTT in assay [4] (volunteer 1) is 78.2 s; in assay [4] (volunteer 2), 70.9 s; in assay [4] (volunteer 3), 60.7 s.

Regarding `COc1ccc2cc([C@H](C)C(=O)O)ccc2c1` [Naproxen], the IC50 in assay [5] was 5.65 µM.

Turning to `CC(=O)Nc1ccc(O)cc1` [Paracetamol, reference compound], in assay [1], the “PT Average ± SD” value was determined as 21.7 ± 4.52 s. In addition, the values for the PT in assay [1] (volunteer 1), in assay [1] (volunteer 2) and in assay [1] (volunteer 3) were 18.5 s, 19.4 s and 27.1 s, respectively. Besides, the “inhibition activity for COX1 enzyme” value in assay [6] is given as “less IC50 inhibition activity”. Further, in assay [4], the “aPTT Average ± SD” value was 72 ± 8.7 s. Also, the aPTT worked out at 73.1 s in assay [4] (volunteer 1), 62.8 s in assay [4] (volunteer 2) and 80.2 s in assay [4] (volunteer 3).

Values taken from paper PMC7271289, “Anti-Inflammatory and Anticoagulant Activities of Synthesized NSAID Prodrug Esters” (Scientifica, 2020).
